{"source": "patent US6465018B1", "about": "“Dietary supplement for increasing energy, strength, and immune function” (priority 1997, dated 2002)", "origin": "cited, not measured here", "test_system": "individuals told to avoid physical exercise", "conditions": "daily dosage of 3 grams", "data": [{"smiles": "CN(CC(=O)O)C(=N)N", "note": "[creatine monohydrate]", "values": [{"measurement": "intracellular creatine concentrations", "result": "raised intracellular creatine concentrations to effective levels"}]}]}
